Our source for the EC50 values is patent US10792282B2, “Protein kinase C inhibitors and uses thereof” (Rigel Pharmaceuticals, Inc., priority 2013, dated 2020).

SMILES strings stand for the structures. Like-named read-outs stand apart in the source and are kept apart here.

This assay concerns PKC mediated IL-2 production. Put plainly: IL-2 ELISA, human primary T cell, anti CD3+CD28+ (whole cell functional assay). The assay is classed as cell-based. The protocol:
Human primary T cells were prepared as follows. Fresh PBMC's from All Cells (Cat # PB002) were re-suspended in RPMI (RPMI-1640 with L-Glutamine; Mediatech, Inc., Herndon Va., cat. #10-040-CM) with 10% FBS and seeded into flasks and incubated at 37° C. for 2 hours to allow the monocytes to adhere. The non-adherent cells were then centrifuged and re-suspended in RPMI medium containing 40 U/ml IL2 and seeded into a flask pre-coated with 1 μg/ml aCD3 and 5 ug/ml aCD28 (Anti-Human CD3, BD Pharmingen Catalog #555336, Anti-Human CD28, Beckman Coulter Catalog # IM1376). The cells were stimulated for 3-4 days, then transferred to a fresh flask and maintained in RPMI (RPMI-1640 with L-Glutamine; Mediatech, Inc., Herndon Va., cat. #10-040-CM) with 10% FBS and 40 U/ml IL-2.
(§1) Human primary T cells (100,000 cells per well) were pre-incubated with or without test compound in RPMI-1640 with L-Glutamine and 10% FBS for 1 hour at 37° C. Cells were then stimulated by transferring them to round-bottom 96-well plates pre-coated with 1 μg/ml αCD3 and 5 μg/ml αCD28. For counter assay, cells were instead stimulated by adding 8× stock solutions of PMA and ionomycin in RPMI-1640 with L-Glutamine and 10% FBS (for final concentrations of 0.5 ng/ml PMA and 0.1 μM ionomycin, both from Calbiochem). Cells were incubated at 37° C. for 24 hours before 100 μL supernatants were harvested for quantification of IL-2 by ELISA using Human IL-2 Duoset ELISA Kit from R and D Systems, Cat. # DY202E.
Compounds 1-90 were tested in a whole cell functional assay for PKC mediated IL-2 production as follows. Human primary T cell isolation and culture: Human primary T cells were prepared as follows. Whole blood was obtained from a healthy volunteer, mixed 1:1 with PBS, layered on to Ficoll Hypaque (Amersham Pharmacia Biotech, Piscataway, N.J., Catalog #17-1440-03) in 2:1 blood/PBS:ficoll ratio and centrifuged for 30 minutes at 4° C. at 1750 rpm. The cells at the serum: ficoll interface were recovered and washed twice with 5 volumes of PBS. These freshly isolated human peripheral blood mononuclear cells were cultured in Yssel's medium containing 40 U/ml IL2 in a flask pre-coated with 1 μg/ml αCD3 and 5 μg/ml αCD28 (Anti-Human CD3, BD Pharmingen Catalog #555336, Anti-Human CD28, Beckman Coulter Catalog # IM1376). The cells were stimulated for 3-4 days, then transferred to a fresh flask and maintained in RPMI (RPMI-1640 with L-Glutamine; Mediatech, Inc., Herndon Va., cat. #10-040-CM) with 10% FBS and 40 U/ml IL-2. The primary T-cells were then washed twice with PBS to remove the IL-2.
as §1, with “Primary T cell stimulation and IL2 ELISA: Human primary” for “Human primary”, “compound in Yssel's medium for 1” for “compound in RPMI-1640 with L-Glutamine and 10% FBS for 1”, “ionomycin in Yssels (for final” for “ionomycin in RPMI-1640 with L-Glutamine and 10% FBS (for final”, “and 0.1 uM ionomycin, both” for “and 0.1 μM ionomycin, both”
In general terms: An ELISA detects its analyte on a solid surface through an enzyme-linked reagent.

The mark [1] stands for this setting: Homo sapiens, T-cell, 24 h, IL-2 production, human primary T cells stimulated with αCD3 and αCD28, 24 hours, IL-2 by ELISA, read-out: EC50.
Setting [2] is: Homo sapiens, T-cell, human primary T cells stimulated with αCD3 and αCD28, IL-2 by ELISA, read-out: EC50 (blocked IL-2 production).
Where [3] appears, read: IL-2 production, human primary T cells stimulated with αCD3 and αCD28, 24 hours, IL-2 by ELISA, read-out: EC50.

Broadly, the EC50 is the concentration that produces a half-maximal response.

Regarding `Cc1ccc(Nc2ncc(F)c(N[C@H]3C[C@@H]4CC(F)(F)CN4C(C)(C)C3)n2)cc1C#N` [Compound 44, (4-((7S,8aR)-2,2-difluoro-octahydro-5,5-dimethylindolizin-7-ylamino)-5-fluoropyrimidin-2-ylamino)-2-methylbenzonitrile], the EC50 by setting is: under setting [1], below 10 µM; under setting [2], below 10 µM.

Turning to `C[C@@H](O)COc1cc(F)c(Nc2ncc(C#N)c(N[C@@H]3C[C@@H]4CCCN4C(C)(C)C3)n2)cc1-n1nnn(C)c1=O` [Compound 90, 4-((7R,8aS)-octahydro-5,5-dimethylindolizin-7-ylamino)-2-(4-((R)-2-hydroxypropoxy)-2-fluoro-5-(4,5-dihydro-4-methyl-5-oxotetrazol-1-yl)phenylamino)pyrimindine-5-carbonitrile], the EC50 was below 0.1 µM under setting [1] and below 10 µM under setting [2].

Turning to `CC1(C)CC(Nc2nc(Nc3ccc(OC4COC4)c(C#N)c3)ncc2F)CC2CCCN21` (single isomer, unassigned) [Compound 63, 5-(5-fluoro-4-(octahydro-5,5-dimethylindolizin-7-ylamino)pyrimidin-2-ylamino)-2-(oxetan-3-yloxy)benzonitrile], the EC50 is below 0.5 µM under setting [1] and below 10 µM under setting [2].

For `CC1(C)C[C@@H](Nc2nc(Nc3cc(-n4cnnn4)c(C4CC4)cc3F)ncc2F)C[C@@H]2CC(F)(F)CN21` [Compound 43, N^2-(4-cyclopropyl-2-fluoro-5-(1H-tetrazol-1-yl)phenyl)-5-fluoro-N^4-((7S,8aR)-2,2-difluoro-octahydro-5,5-dimethylindolizin-7-yl)pyrimidine-2,4-diamine], the EC50 was below 10 µM under setting [1] and below 10 µM under setting [2].

On to `Cn1nnn(-c2cc(Nc3ncc(C#N)c(N[C@@H]4C[C@@H]5CCCN5C(C)(C)C4)n3)c(F)cc2OCC(C)(C)O)c1=O` [Compound 80, 4-((7R,8aS)-octahydro-5,5-dimethylindolizin-7-ylamino)-2-(4-(2-hydroxy-2-methylpropoxy)-2-fluoro-5-(4,5-dihydro-4-methyl-5-oxotetrazol-1-yl)phenylamino)pyrimidine-5-carbonitrile], for which the EC50 under setting [1] is below 0.1 µM and the EC50 under setting [2] is below 10 µM.

With `Cn1nnn(-c2cc(Nc3ncc(C#N)c(N[C@@H]4C[C@@H]5CCCN5C(C)(C)C4)n3)c(F)cc2OCCO)c1=O` [Compound 78, 4-((7R,8aS)-octahydro-5,5-dimethylindolizin-7-ylamino)-2-(4-(2-hydroxyethoxy)-2-fluoro-5-(4,5-dihydro-4-methyl-5-oxotetrazol-1-yl)phenylamino)pyrimidine-5-carbonitrile], the EC50 reads like this: under setting [1], below 0.1 µM; under setting [2], below 10 µM.

In the case of `Cn1nnn(-c2cc(Nc3ncc(F)c(N[C@@H]4C[C@@H]5CCCN5C(C)(C)C4)n3)c(F)cc2OC(C)(C)CO)c1=O` [Compound 85, 1-(2-(1-hydroxy-2-methylpropan-2-yloxy)-5-(4-((7R,8aS)-octahydro-5,5-dimethylindolizin-7-ylamino)-5-fluoropyrimidin-2-ylamino)-4-fluorophenyl)-4-methyl-1H-tetrazol-5(4H)-one], the EC50 is, setting by setting: under setting [1], below 0.5 µM; under setting [2], below 10 µM.

As for `Cn1nnn(-c2cc(Nc3ncc(F)c(N[C@@H]4C[C@@H]5C[C@H](F)CN5C(C)(C)C4)n3)c(F)cc2C2CC2)c1=O` [Compound 67, 1-(5-(4-((2S,7R,8aR)-2-fluoro-octahydro-5,5-dimethylindolizin-7-ylamino)-5-fluoropyrimidin-2-ylamino)-2-cyclopropyl-4-fluorophenyl)-4-methyl-1H-tetrazol-5(4H)-one], the EC50 reads like this: under setting [1], below 0.5 µM; under setting [2], below 10 µM.

For the compound `Cn1nnn(-c2cc(Nc3ncc(F)c(NC4CC(=O)N5C(CCC5(C)C)C4)n3)c(F)cc2C2CC2)c1=O` (stereo not shown) [Compound 30], the EC50 is above 10 µM under setting [1] and below 10 µM under setting [2].

As to `Cn1nnn(-c2cc(Nc3ncc(F)c(N[C@@H]4C[C@@H]5CCCN5C(C)(C)C4)n3)ccc2O[C@H]2CCOC2)c1=O` [Compound 50, 1-(2-((S)-tetrahydrofuran-3-yloxy)-5-(5-fluoro-4-(octahydro-5,5-dimethylindolizin-7-ylamino)pyrimidin-2-ylamino)phenyl)-4-methyl-1H-tetrazol-5(4H)-one], the EC50 runs as follows: under setting [1], below 0.1 µM; under setting [2], below 10 µM.

With `CC1(C)C[C@H](Nc2nc(Nc3cc(-n4cnnn4)c(C4CC4)cc3F)ncc2F)C[C@@H]2CC(F)(F)CN21` [Compound 46, N^2-(4-cyclopropyl-2-fluoro-5-(1H-tetrazol-1-yl)phenyl)-5-fluoro-N^4-((7R,8aR)-2,2-difluoro-octahydro-5,5-dimethylindolizin-7-yl)pyrimidine-2,4-diamine], the EC50 is, setting by setting: under setting [1], below 1 µM; under setting [2], below 10 µM.

As for `CC1C(Nc2nc(Nc3cc(N(C)C(=O)N(C)C)c(C4CC4)cc3F)ncc2F)CC(C)(C)N2CCCC12` (stereo not shown) [Compound 74], the EC50 under setting [3] was below 0.5 µM.

`CC1(C)CC(Nc2nc(Nc3cc(-n4cnnn4)c(C4CC4)cc3F)ncc2F)CC2CCCN21` (racemic) [Compound 55, (±)-N2-(4-cyclopropyl-2-fluoro-5-(1H-tetrazol-1-yl)phenyl)-5-fluoro-n^4-(octahydro-5,5-dimethylindolizin-7-yl)pyrimidine-2,4-diamine]: the EC50 under setting [3] is below 0.5 µM.

On to `CC1(C)CC(Nc2nc(Nc3ccc(O[C@H]4CCOC4)c(C#N)c3)ncc2F)CC2CCCN21` (single isomer, unassigned) [Compound 61], for which the EC50 under setting [1] was below 1 µM and the EC50 under setting [2] is below 10 µM.

As to `Cn1nnn(-c2cc(Nc3ncc(F)c(NC4CC5CCCN5C(C)(C)C4)n3)ccc2O[C@@H]2CCOC2)c1=O` (stereo partly drawn) [Compound 47, 1-(2-((R)-tetrahydrofuran-3-yloxy)-5-(5-fluoro-4-(octahydro-5,5-dimethylindolizin-7-ylamino)pyrimidin-2-ylamino)phenyl)-4-methyl-1H-tetrazol-5(4H)-one], the EC50 under setting [1] is below 0.1 µM and the EC50 under setting [2] was below 10 µM.

On to `Cn1nnn(-c2cc(Nc3ncc(F)c(NC4CCN5CCCC5C4)n3)c(F)cc2C2CC2)c1=O` (stereo not shown) [Compound 29], for which the EC50 under setting [3] is below 10 µM.

As for `CC1(C)Oc2ccc(Nc3ncc(F)c(NC4CC5CCCN5C(C)(C)C4)n3)cc2-n2nnnc21` (stereo not shown) [Compound 3, N2-(4,4-dimethyl-4H-benzo[b]tetrazolo[1,5-d][1,4]oxazin-8-yl)-5-fluoro-N4-(octahydro-5,5-dimethylindolizin-7-amine)pyrimidine-2,4-diamine], the EC50 under setting [3] is below 1 µM.

For `Cn1nnn(-c2cc(Nc3ncc(F)c(NC4CC5CCCN5C(C)(C)C4)n3)ccc2OC2COC2)c1=O` (single isomer, unassigned) [Compound 39, 1-(5-(5-fluoro-4-(octahydro-5,5-dimethylindolizin-7-ylamino)pyrimidin-2-ylamino)-2-(oxetan-3-yloxy)phenyl)-4-methyl-1H-tetrazol-5(4H)-one], the EC50 reads like this: under setting [2], below 10 µM; under setting [3], below 0.5 µM.

On to `COc1cc(F)c(Nc2ncc(F)c(N[C@@H]3C[C@@H]4CCCN4C(C)(C)C3)n2)cc1-n1nnn(C)c1=O` [Compound 22, 1-(5-(4-((7R,8aS)-5,5-dimethyl-octahydroindolizin-7-ylamino)-5-fluoropyrimidin-2-ylamino)-4-fluoro-2-methoxyphenyl)-4-methyl-1H-tetrazol-5(4H)-one], for which the EC50 under setting [1] was below 0.5 µM and the EC50 under setting [2] is below 10 µM.
